± gives the standard deviation of the averaged measurements.
Tests used:
[1] = tested on: Homo sapiens (human subject panel, olfactory perception); experiment: perceived odor intensity rating (rating 0-100); higher = stronger perceived smell
Experimental: (§1)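 Human olfactory psychophysics. 55 healthy subjects (after excluding 6 low performers) sniffed 1 mL of each odorant diluted in paraffin oil (vials, two dilutions per molecule, 20 molecules presented twice). Each subject rated intensity, pleasantness and familiarity on a 0-100 slider, starting at 50 and required to move. Ratings were given only when the subject reported detecting a smell; per-subject ratings are averaged over subjects.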

[2] = tested on: Homo sapiens (human subject panel, olfactory perception); experiment: perceived odor pleasantness rating (rating 0-100); higher = more pleasant
Experimental: as §1

[3] = tested on: Homo sapiens (human subject panel, olfactory perception); experiment: perceived odor familiarity rating (rating 0-100); higher = more familiar
Experimental: as §1

[4] = odor dilution in paraffin oil: 1/10
[5] = odor dilution in paraffin oil: 1/1,000
[6] = odor dilution in paraffin oil: 1/100,000
[7] = odor dilution in paraffin oil: 1/10,000,000

| SMILES | perceived odor intensity rating [1, 4] | perceived odor intensity rating [1, 5] | perceived odor pleasantness rating [2, 4] | perceived odor pleasantness rating [2, 5] | perceived odor familiarity rating [3, 4] | perceived odor familiarity rating [3, 5] | perceived odor intensity rating [1, 6] | perceived odor pleasantness rating [2, 6] | perceived odor familiarity rating [3, 6] | perceived odor intensity rating [1, 7] | perceived odor pleasantness rating [2, 7] | perceived odor familiarity rating [3, 7] |
| --- | --- | --- | --- | --- | --- | --- | --- | --- | --- | --- | --- | --- |
| CCCCCCCCCC(C)=O [2-Undecanone] | 79.4 ± 22 | 31.9 ± 28 | 43.3 ± 32 | 50.4 ± 22 | 49.5 ± 32 | 39.6 ± 30 | – | – | – | – | – | – |
| CC(=O)c1ccccn1 [2-acetyl pyridine] | – | 79.2 ± 20 | – | 49.7 ± 28 | – | 66.9 ± 28 | 74.3 ± 22 | 53.6 ± 27 | 67.8 ± 29 | – | – | – |
| CCC(C)=O [2-butanone] | – | 33 ± 33 | – | 43.3 ± 28 | – | 34.9 ± 32 | 19.4 ± 26 | 49.6 ± 29 | 27.4 ± 31 | – | – | – |
| CCCCCCCCC(C)=O [2-decanone] | – | 44.8 ± 30 | – | 49.5 ± 25 | – | 44 ± 29 | 24.6 ± 26 | 51.2 ± 26 | 30.3 ± 23 | – | – | – |
| CCc1cnccn1 [2-ethyl pyrazine] | – | 80 ± 19 | – | 37.2 ± 30 | – | 55.8 ± 34 | 31.4 ± 25 | 47 ± 21 | 34.8 ± 27 | – | – | – |
| CCCCC(CC)CO (stereo not given) [2-ethyl-1-hexanol] | – | 79.7 ± 19 | – | 19.4 ± 22 | – | 42.1 ± 30 | 51.2 ± 34 | 25.9 ± 23 | 43.6 ± 31 | – | – | – |
| CCCCC(CC)COC(C)=O (stereo not given) [2-ethylhexyl acetate] | – | 44.4 ± 32 | – | 42 ± 22 | – | 38.6 ± 29 | 24.6 ± 31 | 51.3 ± 22 | 32.7 ± 29 | – | – | – |
| CCc1ccccc1O [2-ethylphenol] | – | 83.3 ± 18 | – | 29.2 ± 27 | – | 64.4 ± 28 | 67.7 ± 27 | 33.2 ± 24 | 51.6 ± 33 | – | – | – |
| CCCCCC(C)=O [2-heptanone] | – | 71.1 ± 22 | – | 53.8 ± 25 | – | 52.7 ± 29 | 25.4 ± 27 | 51.9 ± 26 | 23.9 ± 22 | – | – | – |
| CCCCC(C)O (stereo not given) [2-hexanol] | – | 71.9 ± 24 | – | 42.3 ± 24 | – | 58.2 ± 28 | 47.8 ± 32 | 42.1 ± 25 | 38.1 ± 29 | – | – | – |
| CCCCC(C)=O [2-hexanone] | – | 71.4 ± 25 | – | 42.2 ± 24 | – | 57.6 ± 32 | 25.5 ± 31 | 48.6 ± 23 | 31.4 ± 27 | – | – | – |
| CCC/C=C/C=O [2-hexenal] | – | 67.4 ± 28 | – | 30.9 ± 26 | – | 41.1 ± 33 | 39.7 ± 29 | 53.1 ± 26 | 43.1 ± 31 | – | – | – |
| COc1nccnc1CC(C)C [2-isobutyl-3-methoxypyrazine] | – | 80.6 ± 19 | – | 31.2 ± 25 | – | 50.1 ± 31 | 71.7 ± 27 | 47.9 ± 26 | 57.7 ± 30 | – | – | – |
| CC(C)CO [2-methyl-1-propanol] | – | 42.5 ± 33 | – | 37.4 ± 23 | – | 38.5 ± 34 | 23.4 ± 23 | 43.5 ± 21 | 35.4 ± 28 | – | – | – |
| CCCCCCC(C)=O [2-octanone] | – | 66.8 ± 26 | – | 52.5 ± 25 | – | 51.9 ± 26 | 20 ± 26 | 52.2 ± 16 | 36.6 ± 25 | – | – | – |
| CCCC(C)O (stereo not given) [2-pentanol] | – | 50.2 ± 34 | – | 35.5 ± 26 | – | 41.8 ± 30 | 25.7 ± 23 | 42.6 ± 21 | 38.9 ± 31 | – | – | – |
| OCCc1ccccc1 [2-phenylethanol] | – | 70 ± 26 | – | 52.8 ± 30 | – | 61.9 ± 30 | 59.6 ± 29 | 63.1 ± 24 | 61.8 ± 29 | – | – | – |
| CCC(C)C1CCCCC1=O (stereo not given) [2-sec-Butylcyclohexanone] | 81.9 ± 17 | 56.8 ± 28 | 49.3 ± 29 | 51 ± 24 | 58.9 ± 32 | 44.6 ± 32 | – | – | – | – | – | – |

| SMILES | perceived odor intensity rating [1, 4] | perceived odor intensity rating [1, 5] | perceived odor pleasantness rating [2, 4] | perceived odor pleasantness rating [2, 5] | perceived odor familiarity rating [3, 4] | perceived odor familiarity rating [3, 5] | perceived odor intensity rating [1, 6] | perceived odor pleasantness rating [2, 6] | perceived odor familiarity rating [3, 6] | perceived odor intensity rating [1, 7] | perceived odor pleasantness rating [2, 7] | perceived odor familiarity rating [3, 7] |
| --- | --- | --- | --- | --- | --- | --- | --- | --- | --- | --- | --- | --- |
| COc1ccc(C(C)=O)cc1OC [3,4-Dimethoxyacetophenone] | 61.7 ± 26 | 26.5 ± 30 | 38.9 ± 26 | 51.4 ± 20 | 48.6 ± 30 | 35.9 ± 26 | – | – | – | – | – | – |
| CC(C)CCCC(C)CCO (stereo not given) [3,7-Dimethyl-1-octanol] | – | 74.7 ± 22 | – | 40.2 ± 28 | – | 57.6 ± 30 | 24.2 ± 26 | 43.8 ± 19 | 40.5 ± 26 | – | – | – |
| CC(C)=CCCC(C)=CC#N [3,7-Dimethyl-2,6-octadienenitrile] | – | 75.1 ± 22 | – | 64.5 ± 28 | – | 67.1 ± 29 | 46.2 ± 28 | 60.3 ± 23 | 48.4 ± 34 | – | – | – |
| Cc1ccc(C(C)CC=O)o1 (stereo not given) [3-(5-Methyl-2-furyl)butanal] | – | 74.3 ± 22 | – | 27.9 ± 24 | – | 41.5 ± 32 | 30.8 ± 30 | 41.6 ± 25 | 36 ± 31 | – | – | – |
| CSCCC=O [3-(Methylthio)propionaldehyde] | – | – | – | – | – | – | 79.6 ± 23 | 23.9 ± 28 | 53.5 ± 33 | 70.3 ± 25 | 30.7 ± 26 | 49.9 ± 33 |
| CSCCCN=C=S [3-(Methylthio)propyl isothiocyanate] | – | 82.7 ± 21 | – | 25.2 ± 26 | – | 49.7 ± 32 | 62.5 ± 29 | 34.3 ± 27 | 47.6 ± 30 | – | – | – |
| CSCCCO [3-(methylthio)-1-propanol] | – | – | – | – | – | – | 82.2 ± 17 | 22.9 ± 26 | 53.7 ± 31 | 66.3 ± 26 | 24.8 ± 22 | 43.2 ± 31 |
| CC(=O)c1cc(C)oc1C [3-Acetyl-2,5-dimethylfuran] | – | – | – | – | – | – | 65.6 ± 24 | 31.6 ± 22 | 44.9 ± 27 | 15.4 ± 22 | 48.9 ± 22 | 40.2 ± 32 |
| CC(=O)c1cc(C)sc1C [3-Acetyl-2,5-dimethylthiophene] | – | 78.9 ± 20 | – | 27.7 ± 26 | – | 47.4 ± 29 | 19.4 ± 20 | 49.4 ± 29 | 35.4 ± 30 | – | – | – |
| CC(=O)c1cccnc1 [3-Acetylpyridine] | – | 76.2 ± 23 | – | 32.3 ± 29 | – | 48.2 ± 33 | 24.6 ± 30 | 44.8 ± 29 | 30 ± 31 | – | – | – |
| CCCCCC/C=C/C(C)=O [3-Decen-2-one] | – | 65.4 ± 25 | – | 33.9 ± 22 | – | 42.5 ± 28 | 21.6 ± 23 | 46.8 ± 18 | 27.1 ± 21 | – | – | – |
| CC(C)CCS [3-Methyl-1-butanethiol] | – | – | – | – | – | – | 88.3 ± 14 | 13.3 ± 18 | 54.6 ± 34 | 54.1 ± 30 | 32 ± 26 | 46.5 ± 29 |
| CC1CCCC(=O)C1 (stereo not given) [3-Methylcyclohexanone] | – | 71 ± 28 | – | 45.5 ± 30 | – | 53.2 ± 34 | 39.3 ± 34 | 41.7 ± 22 | 34 ± 27 | – | – | – |
| CCCCCC(O)CC (stereo not given) [3-Octanol] | – | 72 ± 23 | – | 38.2 ± 25 | – | 45.5 ± 29 | 26.9 ± 25 | 49.5 ± 18 | 35.9 ± 28 | – | – | – |
| CCCCCC(CC)OC(C)=O (stereo not given) [3-Octyl Acetate] | 83.7 ± 17 | 39.7 ± 31 | 44.9 ± 31 | 59 ± 26 | 51.6 ± 32 | 48.9 ± 29 | – | – | – | – | – | – |
| CCC(=O)CC [3-Pentanone] | – | 57.4 ± 35 | – | 41.1 ± 26 | – | 53.3 ± 32 | 33.3 ± 32 | 45.4 ± 24 | 39.5 ± 29 | – | – | – |
| OCCCc1ccccc1 [3-Phenyl-1-propanol] | – | 63.3 ± 30 | – | 48.6 ± 33 | – | 49.5 ± 34 | 34.5 ± 32 | 45.4 ± 25 | 36.7 ± 27 | – | – | – |
